Data as given in patent publication US12703693B2, “Crystalline forms of N-{3-[(1S)-1-{[6-(3,4-dimethoxyphenyl)pyrazin-2-yl]amino}ethyl]phenyl}-5-methylpyridine-3-carboxamide and related products and methods” (GB002, INC., priority 2021, dated 2026).
Values after ≈ are worked out from the molar mass of the structure shown. One block for each molecule: values may come before it.

Legend:
[1] = Solvent solubility of amorphous Compound 1 (solvent aliquot addition); format: physicochemical; details: thermodynamic from solid
Description: Test solvent/solvent system (50 μL) was added to the vial and the mixture assessed for dissolution. If no dissolution was apparent, the mixture was heated to ca. 40° C. and reassessed; if dissolution was still incomplete, the cycle was repeated and an additional 50 μL of solvent added. After 300 μL of solvent had been added, 100 μL aliquots were added. This procedure was continued until complete dissolution was observed or until 1 mL of solvent had been added.

[2] = Fragility and relaxation time (Tg vs heating rate by DSC); format: physicochemical; details: 25° C.; calculated from fragility parameters (γ=0.9, τ0=10^−14 s)
Description: Fragility and relaxation time parameters were determined by measuring Tg as a function of heating rate. Four heating rates were used: 1, 5, 10 and 20° C./min. DSC measurements were made by: • (1) heating at 10° C./min to 100° C.; • (2) isothermal hold for 5 min; • (3) cooling at 10° C./min to −20° C.; • (4) isothermal hold for 5 min; and • (5) heating at 10° C./min to 130° C.
The slope was used to calculate the activation enthalpy (ΔH*), from which the fragility parameters m, D and T0 were calculated, according to the following equations:
Using the fragility parameters, the initial structural relaxation time was calculated according to the following formula, (using γ=0.9 and τ0=10^−14 s) and determined to be 3 months at 25° C.

[3] = Gravimetric Vapor Sorption (GVS); format: physicochemical; details: 25° C.
Description: Approximately 10-20 mg of crystalline Form A of Compound 1 was placed into a mesh vapor sorption balance pan and loaded into an IGASorp Moisture Sorption Analyzer balance by Hiden Analytical. The sample was subjected to a ramping profile from 40-90% relative humidity (RH) at 10% increments, maintaining the sample at each step until a stable weight had been achieved (98% step completion, minimum step length 30 minutes, maximum step length 60 minutes) at 25° C. After completion of the sorption cycle, the sample was dried using the same procedure to 0% RH, and finally taken back to the starting point of 40% RH. Two cycles were performed. The weight change during the sorption/desorption cycles were plotted, allowing for the hygroscopic nature of the sample to be determined.

[4] = Particle size distribution (PSD) of micronized / spray dried material; format: physicochemical; details: Example 9 wet milling, 5% w/w in water, 45 cycles/P = 50 bar
Excerpt: Crystalline Compound 1 Form A was fed into a grinding chamber tangentially by vacuum created by the venturi system using pressurized nitrogen (venturi pressure, Pvent, above grind pressure, Pgrind). Compressed nitrogen was also used for the jet nozzles in the walls of the chamber. The feed flow rate was set and controlled automatically (by a gravimetric feeder) or manually. Once inside the milling chamber particles were accelerated by a series of perimeter jets, in a spiral movement. The compressed fluid issuing from the nozzles expands from Pgrind and imparts very high rotational speeds in the chamber. The micronizing effect occurs when the slower incoming particles and the faster particles in the spiral path collide. While centrifugal force retains the larger particles at the periphery of the milling chamber, the smaller particles exit with the exhaust gas from the center of the chamber. Five 20 g trials were performed in a 1.5″ jet mill, under varying feed rates (Ffeed,JM,) and pressures; the optimal conditions were used for a sixth larger scale 50 g trial.
Aqueous suspensions of crystalline Compound 1 Form A in water (5% w/w or 10% w/w) were processed via microfluidization with a HPH18 (M-110EH-30 Microfluidics Pilot) wet milling apparatus equipped with an auxiliary processing module (200 μm) and an interaction chamber (Z-shape, 100 μm). The unit was initiated at a given pressure for the first five cycles to perform a pre-milling of the suspension, using only the auxiliary processing module (200 μm). The interaction chamber (100 μm) was then introduced and the suspension processed at a defined pressure. The temperature was controlled, using a reactor jacket, and recorded. To address clogging of the micronization chambers (observed after ~25 cycles), the pressure was increased from 25 to 60 bar.
The material isolated from the first run 1A, was dived into three (1BI, 1BII and 1BIII); runs 2A and 3A were spray dried to produce samples 2B and 3B, respectively. […] Runs 2B and 3B were additionally characterized for specific surface area (SSA). See Table 27 (runs 1BI, 1BII and 1BIII) and Table 28 (runs 2B and 3B) for conditions and product characterization. […]
Two 250 g batches of crystalline Compound 1 Form A were each suspended in water (5 L) and wet polished in a wet milling HPH18 (M-110EH-30 Microfluidics Pilot) apparatus, equipped with an auxiliary processing module (200 μm) and an interaction chamber (Z-shape, 100 μm). The unit was initiated at 50 bar for the first five cycles to perform a pre-milling of the suspension, using only the auxiliary processing module (200 μm). The interaction chamber (100 μm) was then introduced and the suspension processed at 50 bar (increased to 60 or 70 bar if the system clogged). The temperature was maintained at 18-28° C. using a reactor jacket. The Reactor agitation speed was 280 RPM (batch 1) and 390 RPM (batch 2). The first batch was micronized for 25 cycles and particle size distribution analyzed after 5, 15 and 20 cycles; the second batch was micronized for […] and particle size distribution analyzed after 15, 20, 25 and 35 cycles.
Both batches were then spray dried (separately) using a Büchi spray dryer, using an open loop system. The unit was equipped with a two-fluid nozzle: cap and orifice diameters of 1.5 and 0.7 mm, respectively operated with nitrogen. The aspirator, blowing nitrogen, was set at 100% capacity (~40 kg/h). The suspension feed flow was set to 8 ml/min, high and the drying outlet temperature to 75±1° C. […] Total yield (both batches combined) was 267 g (53%).
Two 250 g batches (250 g and 238 g; 488 g total) of crystalline Compound 1 Form A coated with ~2% L-leucine were each suspended in water (5 L) and wet polished in a wet milling HPH18 (M-110EH-30 Microfluidics Pilot) apparatus, under the same process as described in the previous example. The first batch was micronized for 25 cycles and the second for 30 cycles. […]

[5] = Solubility in 25 mM phosphate buffer pH 7.4; details: phosphate buffer, pH 7.4
Description: (§1) Phosphate Buffer contained NaH2PO4·H2O (0.345 g), sodium hydroxide aqueous solution (0.2M, 10.001 mL), sodium chloride (0.576 g) and water (qs ad 100.0 mL); • Ethanol/Water (30/70) contained Ethanol (30.0 g) and Water (70.0 g); • Ethanol/Water (40/60) contained Ethanol (40.0 g) and Water (60.0 g); • Ethanol/Water (50/50) contained Ethanol (50.0 g) and Water (50.0 g); and • Ethanol/Water (45/55) contained Ethanol (4.50 g) and Water (5.51 g).

[6] = Physical stability, 1 week storage (HPLC purity, XRPD); format: physicochemical
Description: Two vials each were then stored for 1 week under various conditions of temperature and relative humidity.
XRPD analysis was performed to detect changes in crystallinity.

physchem = details: 22 °C, aqueous with cosolvent or surfactant or cyclodextrin, thermodynamic from solid
Description: as §1

[7] = Solubility in ethyl acetate and ethyl acetate+2% water (Crystal16 parallel crystallizer); format: physicochemical; details: presence of water (2%)
Description: The solubility of crystalline Forms A and B of Compound 1 in ethyl acetate was determined using a Crystal16® parallel crystallizer. Two heating rates were used, 1° C./min and 0.5° C./min. The suspensions were heated to 78° C. and cooled to 10° C. at 0.2° C./min and maintained for 2 h at 10° C. […] The suspensions were heated to 78° C. at 1° C./min, cooled to 10° C. at 0.2° C./min and maintained for 2 h at 10° C. FIG. 15 compares the resulting solubility curve with the pure ethyl acetate.

[8] = Thermodynamic solubility in pH 3, 4.5, 6.8 buffers and deionized water; details: for pH (24 h): ~24 h agitation at ambient temperature
[9] = Sample stress, 40° C. and 75% relative humidity, XRPD; format: physicochemical; details: open vial, 6 days
Description: Two samples, one containing pure crystalline Form A of Compound 1 and a second containing a mixture of crystalline Forms A and B of Compound 1 were placed in an open vial at 40° C. and 75% relative humidity for 6 days and then analyzed by XRPD. The results are presented in Table 11; no changes by XRPD were observed.

solubility ([1]; 2-propanol, organic solvent or mixture): ≥ 200 mg/mL | solubility ([1]; EtOAc/tBME (75:25% v/v), organic solvent or mixture): ≥ 200 mg/mL | solubility ([1]; acetone, organic solvent or mixture): ≥ 200 mg/mL | solubility ([1]; acetonitrile, organic solvent or mixture): ≥ 200 mg/mL | solubility ([1]; chloroform, organic solvent or mixture): ≥ 200 mg/mL | solubility ([1]; ethanol, organic solvent or mixture): ≥ 200 mg/mL | solubility ([1]; ethanol/water (95:5% v/v), organic solvent or mixture): ≥ 200 mg/mL | solubility ([1]; ethyl acetate, organic solvent or mixture): ≥ 200 mg/mL | solubility ([1]; heptane, organic solvent or mixture): < 10 mg/mL | solubility ([1]; methanol, organic solvent or mixture): ≥ 200 mg/mL | solubility ([1]; methyl ethyl ketone, organic solvent or mixture): ≥ 200 mg/mL | solubility ([1]; organic solvent or mixture, EtOAc/tBME (25:75% v/v), sample heated to 40° C.): ~12.5 mg/mL (≈ 26.6 mM) | solubility ([1]; organic solvent or mixture, EtOAc/tBME (50:50% v/v), sample heated to 40° C.): ~100 mg/mL (≈ 213 mM) | solubility ([1]; tert-butyl methyl ether, organic solvent or mixture): < 10 mg/mL | solubility ([1]; tetrahydrofuran, organic solvent or mixture): ≥ 200 mg/mL | solubility ([1]; toluene, organic solvent or mixture): < 10 mg/mL | solubility ([1]; water): < 10 mg/mL | initial structural relaxation time [2]: 3 months
SMILES: COc1ccc(-c2cncc(N[C@@H](C)c3cccc(NC(=O)c4cncc(C)c4)c3)n2)cc1OC [Amorphous Compound 1, N-{3-[(1S)-1-{[6-(3,4-dimethoxyphenyl)pyrazin-2-yl]amino}ethyl]phenyl}-5-methylpyridine-3-carboxamide]

hygroscopic nature (GVS) ([3]; two sorption/desorption cycles): slightly hygroscopic | GVS mass increase ([3]; up to 90% relative humidity): ~0.7% | Dv10 [4]: 0.1 μm | Dv50 [4]: 1.0 μm | Dv90 [4]: 3.5 μm | solubility in phosphate buffer [5]: moderate solubility | Purity (HPLC) ([6]; 1 week, 25° C./60% relative humidity (open vial)): ~99.1% | Purity (HPLC) ([6]; 1 week, 40° C./75% relative humidity (open vial)): ~99.1% | Purity (HPLC) ([6]; 1 week, 80° C. (closed vial)): ~99.0% | Purity (HPLC) ([6]; 1 week, Ambient light/temperature (closed vial)): ~98.9% | Purity (HPLC) ([6]; Before storage): ~99.3% | crystalline form by XRPD after storage ([6]; one week, ambient, 25° C., 40° C., 80° C., relative humidity ambient, 60%, 75%): maintained | solubility (physchem): 2 to 350 mg/mL (≈ 4.26 to 745 mM) | solubility in ethyl acetate+2% water compared to pure ethyl acetate [7]: significantly more soluble | pH (Initial) ([8]; Water, after addition): 6.78 | pH (24 h) ([8]; Water): 6.73 | Compound 1 concentration in filtered mother liquors (HPLC) ([8]; all buffers (pH 3, 4.5, 6.8) and water, ambient temperature, ~24 h): < 0.05 mg/mL | pH (Initial) ([8]; pH 3 buffer, after buffer addition): 2.96 | pH (24 h) ([8]; pH 3 buffer): 2.94 | pH (Initial) ([8]; pH 4.5 buffer, after buffer addition): 4.55 | pH (24 h) ([8]; pH 4.5 buffer): 4.55 | pH (Initial) ([8]; pH 6.8 buffer, after buffer addition): 6.83 | pH (24 h) ([8]; pH 6.8 buffer): 6.79 | XRPD observation after stress conditions [9]: No change - all Form A
SMILES: COc1ccc(-c2cncc(N[C@@H](C)c3cccc(NC(=O)c4cncc(C)c4)c3)n2)cc1OC [Form A, N-{3-[(1S)-1-{[6-(3,4-dimethoxyphenyl)pyrazin-2-yl]amino}ethyl]phenyl}-5-methylpyridine-3-carboxamide]
